Series [1] concerns MOLT-3 human leukemia cells. The series can be described thus: MTT cytotoxicity assay, MOLT-3. The format is cell-based. Conditions: Homo sapiens. The procedure:
(§1) The cytotoxicity assay of various compounds against human tumor cell lines was performed using the MTT (3-[4,5-dimethylthiazol-2-yl]-2,5-diphenyl tetrazolium bromide) assay (Boehringer Mannheim Corp., Indianapolis, Ind.). Briefly, exponentially growing tumor cells were seeded into a 96-well plate at a density of 2.5×10^4 cells/well and incubated for 36 hours at 37° C. prior to drug exposure. On the day of treatment, culture medium was carefully aspirated from the wells and replaced with fresh medium containing the quinazoline compounds at concentrations ranging from 0.1 to 250 μM. Triplicate wells were used for each treatment.
(§2) Human cell lines were obtained from American Type Culture Collection (Rockville, Md.) and maintained as a continuous cell line in Dulbecco's modified Eagles' medium supplemented with 10% fetal bovine serum and antibiotics. Cells used in this study include human leukemia cells (NALM-6 and MOLT-3), human breast cancer cells ([…]), human prostate cancer cells (PC3), and human brain tumor cells (U373).
(§3) The cells were incubated with the various compounds for 24–36 hours at 37° C. in a humidified 5% CO2 atmosphere. To each well, 10 μl of MTT (0.5 mg/ml final concentration) was added and the plates were incubated at 37° C. for 4 hours to allow MTT to form formazan crystals by reacting with metabolically active cells. The formazan crystals were solubilized overnight at 37° C. in a solution containing 10% SDS in 0.01 M HCl. The absorbance of each well was measured in a microplate reader (Labsystems) at 540 nm and a reference wavelength of 690 nm. To translate the OD 540 values into the number of live cells in each well, the OD 540 values were compared to those on standard OD 540—versus—cell number curves generated for each cell line. The percent survival was calculated using the formula:
(§4) [formula] The IC50 values were calculated by non-linear regression analysis. Detection of Apoptosis

Series [2] concerns NALM-6 human leukemia cells. Put plainly: MTT cytotoxicity assay, NALM-6. Format: cell-based. Conditions: Homo sapiens. How it is done:
as §1, §2, §3, §4

The test system of the next series is mice. The series can be described thus: Single bolus dose toxicity in mice. The format is in vivo. The procedure:
(§5) HI-P131 was not toxic to mice at intraperitoneal single bolus doses ranging from 0.5 mg/kg to 250 mg/kg. […] Thus, the maximum tolerated dose (MlD) of HI-P131 was not reached at 250 mg/kg. We next examined the pharmacokinetic features of HI-P131 in mice. A two-compartment pharmacokinetic model was fit to the pharmacokinetics data obtained following the intravenous (i.v.) or intraperitoneal (i.p.) administration of a single non-toxic 12.5 mg/kg bolus dose of HI-P131.

Series [3] is described as follows: Single bolus dose toxicity in mice. Format: in vivo. The note with it: mouse, in vivo, ip. How it is done: as §5
A short description of series [4]: Pharmacokinetic study in mice. The format is in vivo. The note with it: mouse, plasma, iv, single 12.5 mg/kg bolus, two-compartment model, read-out: Estimated maximum plasma concentration (Cmax). How it is done: In pharmacokinetic studies, mice were injected either intravenously (i.v.) via the tail vein or intraperitoneally (i.p.) with a bolus dose of 300 μg/mouse (˜12.5 mg/kg=34 μmols/kg) of HI-P131. Blood samples were obtained from the ocular venous plexus by retroorbital venupuncture prior to and at 3 minutes, 5 minutes, 10 minutes, 15 minutes, 30 minutes, 45 minutes and 1 hour, 2 hours, 4 hours, and 8 hours after administration of HI-P 131. All collected blood samples were heparinized and centrifuged at 7,000 xg for 10 minutes in a microcentrifuge to obtain plasma. The plasma samples were stored at −20° C. until analysis. Aliquots of plasma were used for extraction and HPLC analysis. […] The area under the concentration time curve (AUC) was calculated by the trapezoidal rule between first (0 h) and last sampling time plus C/k, where C is the concentration of last sampling and k is the elimination rate constant. Systemic clearance (CL) was determined by dividing the dose by the AUC. The apparent volume of distribution at steady-state was calculated using the following equation, Vss=Dose·AUMC/(AUC)^2. […]
A highly sensitive quantitative HPLC detection method (Chen et al., 1998, J. Chromatography B (Biomedical sciences), in press) was used to determine the pharmocokinetics of HI-P131. […]

Series [5] relates to BT20 human breast cancer cells. Put plainly: MTT cytotoxicity assay, BT20. The format is cell-based. Conditions: Homo sapiens. The procedure: as §1, §2, §3, §4
Series [6] has as its system U373 human brain tumor cells. The series can be described thus: MTT cytotoxicity assay, U373. Format: cell-based. Conditions: Homo sapiens, U373 MG. How it is done:
as §1, §2, §3, §4

In a further series the test system is PC3 cells. The series can be described thus: TUNEL apoptosis assay, PC3. Conditions: 24 hours incubation, FIG. 3. Format: cell-based, human. The procedure:
Exponentially growing cells were seeded in 6-well tissue culture plates at a density of 50×10^4 cells/well and cultured for 36 hours at 37° C. in a humidified 5% CO2 atmosphere. The supernatant culture medium was carefully aspirated and replaced with fresh medium containing unconjugated EGF or EGF-P154 at a concentration of 10, 25, or 50 μg/ml. After a 36 hour incubation at 37° C. in a humidified 5% CO2 incubator, the supernatants were carefully aspirated and the cells were treated for 1–2 minutes with 0.1% trypsin. The detached cells were collected into a 15 ml centrifuge tube, washed with medium and pelleted by centrifugation at 1000 rpm for 5 minutes. Cells were resuspended in 50 μl of PBS, transferred to poly-L-lysine coated coverslips and allowed to attach for 15 minutes. The cells were washed once with PBS and incubated with equilibration buffer for 10 minutes at room temperature. […]
The cells were incubated with HI-P353 or HI-P219 for 24 hours, fixed, permeabilized, and visualized for DNA degradation in a TUNEL assay using digoxigenin-UTP-labeling kit. In the color photographs, red fluorescence represents nuclei stained with propidium iodide. […]

Series [7] relates to PC3 human prostate cancer cells. The series can be described thus: MTT cytotoxicity assay, PC3. The note with it: Table 5, fluoro-substituted, value ± spread. Format: cell-based. The procedure: as §1, §2, §3, §4

Each structure is given as a SMILES string.

Take `COc1cc2ncnc(Nc3ccc(O)cc3)c2cc1OC` [HI-P131, 4-(4′-Hydroxylphenyl)-amino-6,7-dimethoxyquinazoline]: the half-inhibitory concentration (IC50) was 38.6 µM in series [1] (MOLT-3, Table 4, OH substituted, 24–36 hours); 32.1 µM in series [2] (NALM-6, Table 4, OH substituted, 24–36 hours); greater than 250 µM in series [5] (BT-20, Table 4, OH substituted, 24–36 hours); greater than 250 µM in series [6] (Table 4, OH substituted, 24–36 hours). Moreover, the “Side effects or death of toxicity” value in the series on mice (50 mice, 30 day observation period) was “None of the 50 mice treated with HI-P131 experienced side effects or died of toxicity”. In addition, the “Histopathologic lesions in organs” value with mice (mouse, in vivo) is “No histopathologic lesions”. In the series with mice (mouse, in vivo), the Toxicity to mice result is “not toxic”. This compound registered an MTD at 30 day in series [3] greater than 250 mg/kg. In addition, the Cmax in series [4] was 85.6 µM.

On to `COc1cc2ncnc(Nc3ccc(OC(F)(F)F)cc3)c2cc1OC` [HI-P219, 4-(4′-Trifluoromethoxylphenyl)-amino-6,7-dimethoxyqui-nazoline], for which the IC50 in [1] (MOLT-3, Table 5, fluoro-substituted, value ± spread) was found to be 41.3 ± 4.4 µM; in series [2] (NALM-6, Table 5, fluoro-substituted, value ± spread), 22.3 ± 3 µM; in [5] (BT-20, Table 5, fluoro-substituted, value ± spread) it was 44.2 ± 10.9 µM; in [7], 58.3 ± 3.2 µM; in series [6] (Table 5, fluoro-substituted, value ± spread) it was 83.6 ± 6.5 µM. In addition, the “Induction of apoptosis (TUNEL)” value in the series with PC3 cells is “Apoptosis was induced”.

(Values after patent US7038049B2, “Haloanilino quinazolines and therapeutic use thereof” (Parker Hughes Institute, priority 1999, dated 2006).)
